# Reference: patent US12714735B2, “Herbal composition for cancer” (priority 2024, dated 2026)
# Values joined by “and” are separate entries in the source; they are usually repeats but may differ in a detail not shown here. Equal entries are not always repeated.
# Key:
# [1] = Free radical scavenging activity (antioxidant assay); assay type: biochemical
# Excerpt: Evaluation of in-vitro cytotoxic potential of herbal products in human Lung cancer cell line (A549) by antioxidant assay: […] These substances may have potential as cytotoxic agents for further investigation. In an embodiment, free radical scavenging activity as per IC50 value: […]
# MTT cytotoxicity assay = assay type: cell-based; details: human
# Protocol: (§1) Human Lung carcinoma epithelial cell line, A549 cell line was obtained from the National Centre for Cell Sciences (NCCS, Pune). The cell line was cultured in DMEM (Himedia), supplemented with 10% fetal bovine serum (Sigma-Aldrich), 25 U/ml penicillin, and […] streptomycin (Himedia) at 37° ° C. in a water-saturated atmosphere of 95% air and 5% CO2. The experiments were repeated three times and average OD (absorbance values) were taken and plotted
# 8 test compounds (Wheatgrass, Ginger, Garlic, Tulsi, Green tea, Ashwagandha, 95% extract of Piperine and Turmeric) were obtained from the formulation department of Dabur Research Foundation, Sahibabad, Ghaziabad, U.P. 201010. 100 mg of the test compounds was weighed and dissolved in DMSO. After that, it was vortexed thoroughly followed by centrifugation. The clear supernatant was then used for further experimentation.
# as §1, with “Cell culture Human” for “Human”, “37°” for “37° °”, “CO2.” for “CO2. The experiments were repeated three times and average OD (absorbance values) were taken and plotted”
# The effect of DMSO extracts of 8 test compounds (Wheatgrass, Ginger, Garlic, Tulsi, Green tea, Ashwagandha, 95% extract of Piperine and Turmeric) on A549 human lung carcinoma epithelial cell line was observed by MTT (3-(4,5-dimethylthiazol-2-yl)-2,5-diphenyl tetrazolium bromide) assay. MTT reagent was purchased from Sigma (Darmstadt, Germany). Cells were counted on a hemocytometer and 10,000 cells/well were plated in 96 well plate in 180 μl of complete media (containing 10% of FBS).
# Cells were treated with different concentrations (0.01, 0.1, 1, 10, 50, 100 μg/ml) of Wheatgrass, Ginger, Garlic, Tulsi, Green tea & Ashwagandha extracts and at concentrations (0.001, 0.01, 0.1, 1, 10 and 50 μg/ml) of 95% extract of Piperine and Turmeric for 72 hr. After the stipulated time, MTT solution (5 mg/ml) was added to each well and incubated for 3 hr. The purple-colored precipitate of formazan was dissolved in 150 μl of DMSO (Sigma-Aldrich) by proper mixing. The color absorbance of each well was recorded at 570 nm in a Bioteck microplate reader with a reference serving as blank. Then, IC50 values of DMSO extracts of 8 test compounds were calculated.
# Statistical analysis MTT Data were analyzed by using Microsoft office Excel Software.
IC 50 value (free radical scavenging) [1] [µg/mL],Structure (SMILES),% Inhibition ([1]; 1 μg/ml) [%],% Inhibition ([1]; 10 μg/ml),% Inhibition ([1]; 20 μg/ml),% Inhibition ([1]; 30 μg/ml),% Inhibition ([1]; 40 μg/ml),% Inhibition ([1]; 50 μg/ml),% Inhibition ([1]; 100 μg/ml),IC50 at 72 h (MTT cytotoxicity assay) [µM],"cytotoxicity at 72 h, 0.1 µM (MTT cytotoxicity assay) [%]","cytotoxicity at 72 h, 1 µM (MTT cytotoxicity assay) [%]","cytotoxicity at 72 h, 10 µM (MTT cytotoxicity assay) [%]","cytotoxicity at 72 h, 25 µM (MTT cytotoxicity assay) [%]","cytotoxicity at 72 h, 50 µM (MTT cytotoxicity assay) [%]"
37.54,O=C1O[C@H]([C@@H](O)CO)C(O)=C1O [Ascorbic Acid],2.3,13% and 13.2%,24% and 24.4%,38% and 37.6%,51% and 50.8%,63% and 62.6%,90% and 90.4%,–,–,–,–,–,–
–,COc1cccc2c1C(=O)c1c(O)c3c(c(O)c1C2=O)C[C@@](O)(C(=O)CO)C[C@@H]3O[C@H]1C[C@H](N)[C@H](O)[C@H](C)O1 [Doxorubicin],–,–,–,–,–,–,–,9.39,11.7,19.3,51,66.2,69.2
